Results as given in PubChem BioAssay (NCI).
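All cell lines were grown in 96-well plates and treated with compound for 48 hours. Here, GI50 denotes the concentration required for 50% inhibition of growth. TGI denotes the concentration required for complete inhibition of growth.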

Tests used:
Experiment in all cases: inhibition of tumour cell growth, NCI panel, 48 h
786-0 renal = tested on: 786-0 renal
A498 renal = tested on: A498 renal
A549 NSCLC = tested on: A549 NSCLC
ACHN renal = tested on: ACHN renal
BT-549 breast = tested on: BT-549 breast
CAKI-1 renal = tested on: CAKI-1 renal
CCRF-CEM leukemia = tested on: CCRF-CEM leukemia
COLO 205 colon = tested on: COLO 205 colon
DU-145 prostate = tested on: DU-145 prostate
EKVX NSCLC = tested on: EKVX NSCLC
HCC-2998 colon = tested on: HCC-2998 colon
HCT-116 colon = tested on: HCT-116 colon
HCT-15 colon = tested on: HCT-15 colon
HL-60(TB) leukemia = tested on: HL-60(TB) leukemia
HOP-62 NSCLC = tested on: HOP-62 NSCLC
HOP-92 NSCLC = tested on: HOP-92 NSCLC
HS 578T breast = tested on: HS 578T breast
HT29 colon = tested on: HT29 colon
IGROV1 ovarian = tested on: IGROV1 ovarian
K-562 leukemia = tested on: K-562 leukemia
KM12 colon = tested on: KM12 colon
LOX IMVI melanoma = tested on: LOX IMVI melanoma
M14 melanoma = tested on: M14 melanoma
MALME-3M melanoma = tested on: MALME-3M melanoma
MDA-MB-231 breast = tested on: MDA-MB-231 breast
MDA-MB-435 = tested on: MDA-MB-435
MOLT-4 leukemia = tested on: MOLT-4 leukemia
NCI-H460 lung = tested on: NCI-H460 lung
NCI-H522 lung = tested on: NCI-H522 lung
NCI/ADR-RES ovarian = tested on: NCI/ADR-RES ovarian
OVCAR-3 ovarian = tested on: OVCAR-3 ovarian
OVCAR-4 ovarian = tested on: OVCAR-4 ovarian
OVCAR-5 ovarian = tested on: OVCAR-5 ovarian
OVCAR-8 ovarian = tested on: OVCAR-8 ovarian
PC-3 prostate = tested on: PC-3 prostate
RPMI-8226 leukemia = tested on: RPMI-8226 leukemia
RXF 393 renal = tested on: RXF 393 renal
SF-268 CNS = tested on: SF-268 CNS
SF-295 CNS = tested on: SF-295 CNS
SF-539 CNS = tested on: SF-539 CNS
SK-MEL-2 melanoma = tested on: SK-MEL-2 melanoma
SK-MEL-28 melanoma = tested on: SK-MEL-28 melanoma
SK-MEL-5 melanoma = tested on: SK-MEL-5 melanoma
SK-OV-3 ovarian = tested on: SK-OV-3 ovarian
SN12C renal = tested on: SN12C renal
SNB-19 CNS = tested on: SNB-19 CNS
SNB-75 CNS = tested on: SNB-75 CNS
SW-620 colon = tested on: SW-620 colon
T-47D breast = tested on: T-47D breast
TK-10 renal = tested on: TK-10 renal
U251 CNS = tested on: U251 CNS
UACC-257 melanoma = tested on: UACC-257 melanoma
UACC-62 melanoma = tested on: UACC-62 melanoma
UO-31 renal = tested on: UO-31 renal

Structure (SMILES): Cc1cc2ncc(-c3cc4ccccc4c(N4CCN(C)CC4)n3)nc2cc1C
- GI50 (786-0 renal): 1.68 µM
- TGI (786-0 renal): 3.57 µM
- GI50 (A498 renal): 16.1 µM
- TGI (A498 renal): 31.6 µM
- GI50 (A549 NSCLC): 81.6 µM
- TGI (A549 NSCLC): > 100 µM
- GI50 (ACHN renal): 2.14 µM
- TGI (ACHN renal): 4.45 µM
- GI50 (BT-549 breast): 14 µM
- TGI (BT-549 breast): 29.2 µM
- GI50 (CAKI-1 renal): 1.62 µM
- TGI (CAKI-1 renal): 3.12 µM
- GI50 (CCRF-CEM leukemia): 2.22 µM
- TGI (CCRF-CEM leukemia): 5.93 µM
- GI50 (COLO 205 colon): 1.87 µM
- TGI (COLO 205 colon): 3.52 µM
- GI50 (DU-145 prostate): 6.53 µM
- TGI (DU-145 prostate): > 100 µM
- GI50 (EKVX NSCLC): 33.7 µM
- TGI (EKVX NSCLC): > 100 µM
- GI50 (HCC-2998 colon): 1.69 µM
- TGI (HCC-2998 colon): 3.2 µM
- GI50 (HCT-116 colon): 1.67 µM
- TGI (HCT-116 colon): 3.09 µM
- GI50 (HCT-15 colon): 1.82 µM
- TGI (HCT-15 colon): 3.6 µM
- GI50 (HL-60(TB) leukemia): 1.55 µM
- TGI (HL-60(TB) leukemia): 3.56 µM
- GI50 (HOP-62 NSCLC): 21.2 µM
- TGI (HOP-62 NSCLC): 79.5 µM
- GI50 (HOP-92 NSCLC): 2.42 µM
- TGI (HOP-92 NSCLC): 15.9 µM
- GI50 (HS 578T breast): 12.7 µM
- TGI (HS 578T breast): 39.2 µM
- GI50 (HT29 colon): 1.63 µM
- TGI (HT29 colon): 3.29 µM
- GI50 (IGROV1 ovarian): 4.81 µM
- TGI (IGROV1 ovarian): 61.2 µM
- GI50 (K-562 leukemia): 1.82 µM
- TGI (K-562 leukemia): 3.57 µM
- GI50 (KM12 colon): 2.34 µM
- TGI (KM12 colon): 5.47 µM
- GI50 (LOX IMVI melanoma): 1.81 µM
- TGI (LOX IMVI melanoma): 3.34 µM
- GI50 (M14 melanoma): 1.75 µM
- TGI (M14 melanoma): 3.21 µM
- GI50 (MALME-3M melanoma): 1.75 µM
- TGI (MALME-3M melanoma): 3.42 µM
- GI50 (MDA-MB-231 breast): 2.98 µM
- TGI (MDA-MB-231 breast): 10.3 µM
- GI50 (MDA-MB-435): 1.79 µM
- TGI (MDA-MB-435): 3.36 µM
- GI50 (MOLT-4 leukemia): 2.32 µM
- TGI (MOLT-4 leukemia): 5.27 µM
- GI50 (NCI-H460 lung): 1.87 µM
- TGI (NCI-H460 lung): 3.45 µM
- GI50 (NCI-H522 lung): 11.6 µM
- TGI (NCI-H522 lung): 28.9 µM
- GI50 (NCI/ADR-RES ovarian): 5.76 µM
- TGI (NCI/ADR-RES ovarian): > 100 µM
- GI50 (OVCAR-3 ovarian): 10.3 µM
- TGI (OVCAR-3 ovarian): > 100 µM
- GI50 (OVCAR-4 ovarian): 5.62 µM
- TGI (OVCAR-4 ovarian): > 100 µM
- GI50 (OVCAR-5 ovarian): 8.87 µM
- TGI (OVCAR-5 ovarian): 49.2 µM
- GI50 (OVCAR-8 ovarian): 2.83 µM
- TGI (OVCAR-8 ovarian): 8.57 µM
- GI50 (PC-3 prostate): 5.37 µM
- TGI (PC-3 prostate): > 100 µM
- GI50 (RPMI-8226 leukemia): 2.19 µM
- TGI (RPMI-8226 leukemia): 5.33 µM
- GI50 (RXF 393 renal): 2.01 µM
- TGI (RXF 393 renal): 4.8 µM
- GI50 (SF-268 CNS): 13.2 µM
- TGI (SF-268 CNS): 55 µM
- GI50 (SF-295 CNS): 14.2 µM
- TGI (SF-295 CNS): 31.6 µM
- GI50 (SF-539 CNS): 1.87 µM
- TGI (SF-539 CNS): 3.98 µM
- GI50 (SK-MEL-2 melanoma): 16 µM
- TGI (SK-MEL-2 melanoma): 31.2 µM
- GI50 (SK-MEL-28 melanoma): 1.74 µM
- TGI (SK-MEL-28 melanoma): 3.19 µM
- GI50 (SK-MEL-5 melanoma): 12.8 µM
- TGI (SK-MEL-5 melanoma): 29.4 µM
- GI50 (SK-OV-3 ovarian): 36.6 µM
- TGI (SK-OV-3 ovarian): > 100 µM
- GI50 (SN12C renal): 6.07 µM
- TGI (SN12C renal): 65.8 µM
- GI50 (SNB-19 CNS): 20.2 µM
- TGI (SNB-19 CNS): 89.8 µM
- GI50 (SNB-75 CNS): 11 µM
- TGI (SNB-75 CNS): 24 µM
- GI50 (SW-620 colon): 1.85 µM
- TGI (SW-620 colon): 3.41 µM
- GI50 (T-47D breast): 3.59 µM
- TGI (T-47D breast): 15.4 µM
- GI50 (TK-10 renal): 20 µM
- TGI (TK-10 renal): 44.1 µM
- GI50 (U251 CNS): 2.11 µM
- TGI (U251 CNS): 4.91 µM
- GI50 (UACC-257 melanoma): 12.8 µM
- TGI (UACC-257 melanoma): 26.4 µM
- GI50 (UACC-62 melanoma): 1.89 µM
- TGI (UACC-62 melanoma): 3.89 µM
- GI50 (UO-31 renal): 4.35 µM
- TGI (UO-31 renal): 17.2 µM
